Source: patent publication US20100105098A1, “Methods of Identifying Disease Biomarkers in the Lense of the Eye” (priority 2006, published 2010)

Columns and labels:
[1] = test system: cultured lens; conditions: bolus of 250 μM H2O2, incubated for 24 hrs
Description: FIG. 26: Cultured lens exposed to a bolus of 250 μM H2O2 incubated for 24 hrs.
Optimizing sensitivity for Raman. […] In previous in vitro studies Laser probes at 514 nm (82), and 647 nm (34) wavelengths were used for detection and characterization of Aβ-metal complex signature intensities in situ in lenses.

[2] = in vitro, cited from earlier work

## OO [H2O2, hydrogen peroxide]
[1]
  light scattering indicative of lens opacification: increases over time

## Aβ1-40: human β-amyloid peptide, 1-40 amino acid form derived from APP
[2]; human peptides
  H2O2 produced relative to Aβ1-42 peptides: ~50%

## rat Aβ1-40: rat β-amyloid peptide 1-40, lacking two key metal chelating amino acids (DAEFGHDSGFEVRHQKLVFFAEDVGSNKGAIIGLMVGGVV; Amyloid-beta protein 40; UniProt P08592 672-711, looked up, fragment)
[2]; rat peptides
  H2O2 produced relative to human Aβ1-40: ~20%
